In US20250186405A1, “Compound For Use In Treating Narcolepsy” (Alkermes, Inc., priority 2023, published 2025):

Test system: subjects with narcolepsy type-1 (NT1)
Test: Part 4 POC NT1: treatment-emergent adverse events, single doses, crossover
Assay type: in vivo, human
Method: Subjects were randomized to 1 of 4 sequences.
Each subject received three doses of Compound A, including 1, 3, and 8 mg, and a single dose of placebo. […] All subjects underwent the washout period and completed all 4-way randomized crossover periods.
With one exception, each subject received three doses of Compound A, including 1, 3, and 8 mg, and a single dose of placebo. One patient withdrew from the study after the first dose due to venous access complications. […] With the exception of one patient as noted above, all subjects underwent the washout period and completed all 4-way randomized crossover periods.

## CS(=O)(=O)N[C@H]1CCCN2C(=O)COc3ccccc3C3CCC(CC3)OCC12 (stereo partly drawn) [Compound A, N-[(4S,4aR,7α,10α)-1,2,3,4,4a,5,7,8,9,10,16,17-dodecahydro-17-oxo-7,10-ethanopyrido[1,2-d][1,7,4]benzodioxaazacyclotridecin-4-yl]methanesulfonamide]
1 mg (N = 4)
  AE Leading to Study Drug Discontinuation: 0 n (%)
  Any SAEs: 0 n (%)
  Any TEAE: 1 (25.0) n (%)
  Death: 0 n (%)
  TEAE Anaemia: 0 n (%)
  TEAE Application site dermatitis: 1 (25.0) n (%)
  TEAE Blood pressure increased: 0 n (%)
  TEAE Bruxism: 0 n (%)
  TEAE Dermatitis contact: 0 n (%)
  TEAE Dizziness: 0 n (%)
  TEAE Hyperhidrosis: 0 n (%)
  TEAE Hyperlipidaemia: 0 n (%)
  TEAE Insomnia: 0 n (%)
  TEAE Pollakiuria: 0 n (%)
  TEAE Procedural anxiety: 0 n (%)
  TEAE Salivary hypersecretion: 0 n (%)
  TEAE Vascular access site injury: 0 n (%)
  TEAE Vessel puncture site bruise: 0 n (%)
  TEAE by Highest Relationship: Not Related: 1 (25.0) n (%)
  TEAE by Highest Relationship: Related: 0 n (%)
  TEAE by Highest Severity: Mild: 1 (25.0) n (%)
  TEAE by Highest Severity: Moderate: 0 n (%)
  TEAE by Highest Severity: Severe: 0 n (%)
1 mg (N = 9)
  AE Leading to Study Drug Discontinuation: 0 n (%)
  Any SAEs: 0 n (%)
  Any TEAE: 6 (66.7) n (%)
  Death: 0 n (%)
  TEAE Anaemia: 0 n (%)
  TEAE Application site dermatitis: 1 (11.1) n (%)
  TEAE Back pain: 0 n (%)
  TEAE Blood pressure increased: 0 n (%)
  TEAE Bruxism: 0 n (%)
  TEAE Decreased appetite: 1 (11.1) n (%)
  TEAE Dehydration: 1 (11.1) n (%)
  TEAE Dermatitis contact: 0 n (%)
  TEAE Dizziness: 1 (11.1) n (%)
  TEAE Haemoglobin decreased: 0 n (%)
  TEAE Headache: 0 n (%)
  TEAE Hyperhidrosis: 0 n (%)
  TEAE Hyperlipdaemia: 0 n (%)
  TEAE Insomnia: 0 n (%)
  TEAE Middle Insomnia: 0 n (%)
  TEAE Nausea: 2 (22.2) n (%)
  TEAE Pollakiuria: 0 n (%)
  TEAE Salivary hypersecretion: 1 (11.1) n (%)
  TEAE Sinus tachycardia: 1 (11.1) n (%)
  TEAE Vascular access site injury: 0 n (%)
  TEAE Vessel puncture site bruise: 0 n (%)
  TEAE Vessel puncture site pain: 0 n (%)
  TEAE by Highest Relationship: Not Related: 1 (11.1) n (%)
  TEAE by Highest Relationship: Related: 5 (55.6) n (%)
  TEAE by Highest Severity: Mild: 6 (66.7) n (%)
  TEAE by Highest Severity: Moderate: 0 n (%)
  TEAE by Highest Severity: Severe: 0 n (%)
3 mg (N = 4)
  AE Leading to Study Drug Discontinuation: 0 n (%)
  Any SAEs: 0 n (%)
  Any TEAE: 2 (50.0) n (%)
  Death: 0 n (%)
  TEAE Anaemia: 0 n (%)
  TEAE Application site dermatitis: 0 n (%)
  TEAE Blood pressure increased: 0 n (%)
  TEAE Bruxism: 0 n (%)
  TEAE Dermatitis contact: 1 (25.0) n (%)
  TEAE Dizziness: 0 n (%)
  TEAE Hyperhidrosis: 0 n (%)
  TEAE Hyperlipidaemia: 0 n (%)
  TEAE Insomnia: 0 n (%)
  TEAE Pollakiuria: 0 n (%)
  TEAE Procedural anxiety: 1 (25.0) n (%)
  TEAE Salivary hypersecretion: 0 n (%)
  TEAE Vascular access site injury: 1 (25.0) n (%)
  TEAE Vessel puncture site bruise: 1 (25.0) n (%)
  TEAE by Highest Relationship: Not Related: 2 (50.0) n (%)
  TEAE by Highest Relationship: Related: 0 n (%)
  TEAE by Highest Severity: Mild: 2 (50.0) n (%)
  TEAE by Highest Severity: Moderate: 0 n (%)
  TEAE by Highest Severity: Severe: 0 n (%)
3 mg (N = 9)
  AE Leading to Study Drug Discontinuation: 0 n (%)
  Any SAEs: 0 n (%)
  Any TEAE: 5 (55.6) n (%)
  Death: 0 n (%)
  TEAE Anaemia: 0 n (%)
  TEAE Application site dermatitis: 0 n (%)
  TEAE Back pain: 0 n (%)
  TEAE Blood pressure increased: 0 n (%)
  TEAE Bruxism: 0 n (%)
  TEAE Decreased appetite: 0 n (%)
  TEAE Dehydration: 0 n (%)
  TEAE Dermatitis contact: 2 (22.2) n (%)
  TEAE Dizziness: 0 n (%)
  TEAE Haemoglobin decreased: 0 n (%)
  TEAE Headache: 0 n (%)
  TEAE Hyperhidrosis: 0 n (%)
  TEAE Hyperlipdaemia: 0 n (%)
  TEAE Insomnia: 0 n (%)
  TEAE Middle Insomnia: 1 (11.1) n (%)
  TEAE Nausea: 0 n (%)
  TEAE Pollakiuria: 2 (22.2) n (%)
  TEAE Salivary hypersecretion: 1 (11.1) n (%)
  TEAE Sinus tachycardia: 0 n (%)
  TEAE Vascular access site injury: 1 (11.1) n (%)
  TEAE Vessel puncture site bruise: 1 (11.1) n (%)
  TEAE Vessel puncture site pain: 0 n (%)
  TEAE by Highest Relationship: Not Related: 2 (22.2) n (%)
